Reference: ChEMBL document CHEMBL1201861, “Genomics of Drug Sensitity in Cancer screening data, Wellcome Trust Sanger Institute”

Tests used:
Experiment in all cases: cells
[1] = system: COLO-320-HSR; format: functional, cell-based, Homo sapiens; conditions: Homo sapiens, COLO-320-HSR;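 note: growth inhibition of COLO-320-HSR cells, determined with a cell viability assay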
Description: SANGER: Inhibition of human COLO-320-HSR cell growth in a cell viability assay.

[2] = system: SW872; format: functional, cell-based, Homo sapiens; conditions: Homo sapiens, SW872;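 note: growth inhibition of SW872 cells, read out by a viability assay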
Description: SANGER: Inhibition of human SW872 cell growth in a cell viability assay.

[3] = system: NCI-H747; format: functional, cell-based, Homo sapiens; conditions: Homo sapiens, NCI-H747;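 note: growth inhibition of human NCI-H747 cells, read out by a cell viability assay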
Description: SANGER: Inhibition of human NCI-H747 cell growth in a cell viability assay.

[4] = system: KARPAS-299; format: functional, cell-based, Homo sapiens; conditions: Homo sapiens, KARPAS-299
Description: SANGER: Inhibition of human KARPAS-299 cell growth in a cell viability assay.

[5] = system: NOS-1; format: functional, cell-based, Homo sapiens; conditions: Homo sapiens, NOS-1;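 note: growth inhibition of the human NOS-1 cell line, read out with a cell viability assay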
Description: SANGER: Inhibition of human NOS-1 cell growth in a cell viability assay.

[6] = system: NTERA-2-cl-D1; format: functional, cell-based, Homo sapiens; conditions: Homo sapiens, NTERA-2-cl-D1;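 note: inhibition of cell growth, measured with a cell viability assay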
Description: SANGER: Inhibition of human NTERA-S-cl-D1 cell growth in a cell viability assay.

[7] = system: KG-1; format: functional, cell-based, Homo sapiens; conditions: Homo sapiens, KG-1;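 note: growth inhibition of KG-1 cells, read out by a cell viability assay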
Description: SANGER: Inhibition of human KG-1 cell growth in a cell viability assay.

[8] = system: ES7; format: functional, cell-based, Homo sapiens; conditions: Homo sapiens, ES7;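 note: growth inhibition of cultured human ES7 cells, read out as cell viability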
Description: SANGER: Inhibition of human ES7 cell growth in a cell viability assay.

[9] = system: 8-MG-BA; format: functional, cell-based, Homo sapiens; conditions: Homo sapiens, 8-MG-BA;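 note: growth inhibition of 8-MG-BA cells, read out with a cell viability assay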
Description: SANGER: Inhibition of human 8-MG-BA cell growth in a cell viability assay.

[10] = system: TE-9; format: functional, cell-based, Homo sapiens; conditions: Homo sapiens, TE-9;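 note: cell growth inhibition, measured with a cell viability readout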
Description: SANGER: Inhibition of human TE-9 cell growth in a cell viability assay.

[11] = system: SNU1; format: functional, cell-based, Homo sapiens; conditions: Homo sapiens, SNU1;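 note: growth inhibition of human NCI-SNU-1 cells, measured with a cell viability assay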
Description: SANGER: Inhibition of human NCI-SNU-1 cell growth in a cell viability assay.

[12] = system: OS-RC-2; format: functional, cell-based, Homo sapiens; conditions: Homo sapiens, OS-RC-2;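 note: growth inhibition of human OS-RC-2 cells, measured by a cell viability assay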
Description: SANGER: Inhibition of human OS-RC-2 cell growth in a cell viability assay.

[13] = system: KGN; format: functional, cell-based, Homo sapiens; conditions: Homo sapiens, KGN;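 note: growth inhibition of KGN cells, read out with a cell viability assay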
Description: SANGER: Inhibition of human KGN cell growth in a cell viability assay.

[14] = system: ES5; format: functional, cell-based, Homo sapiens; conditions: Homo sapiens, ES5;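 note: growth inhibition of human ES5 cells, read out by a cell viability assay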
Description: SANGER: Inhibition of human ES5 cell growth in a cell viability assay.

[15] = system: MZ7-mel; format: functional, cell-based, Homo sapiens; conditions: Homo sapiens, MZ7-mel;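 note: growth inhibition of human MZ7-mel cells, measured by a cell viability assay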
Description: SANGER: Inhibition of human MZ7-mel cell growth in a cell viability assay.

[16] = system: GB-1; format: functional, cell-based, Homo sapiens; conditions: Homo sapiens, GB-1;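 note: growth of GB-1 cells judged by a viability assay, IC50 marks the concentration inhibiting growth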
Description: SANGER: Inhibition of human GB-1 cell growth in a cell viability assay.

[17] = system: ES6; format: functional, cell-based; conditions: Homo sapiens;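 note: growth inhibition of human ES6 cells, read out with a cell viability assay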
Description: SANGER: Inhibition of human ES6 cell growth in a cell viability assay.

[18] = system: KE-37; format: functional, cell-based, Homo sapiens; conditions: Homo sapiens, KE-37;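 note: growth inhibition of KE-37 cells, read out with a cell viability assay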
Description: SANGER: Inhibition of human KE-37 cell growth in a cell viability assay.

[19] = system: JVM-2; format: functional, cell-based, Homo sapiens; conditions: Homo sapiens, JVM-2;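 note: growth inhibition of JVM-2 cells determined by a cell viability assay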
Description: SANGER: Inhibition of human JVM-2 cell growth in a cell viability assay.

[20] = system: MEG-01; format: functional, cell-based, Homo sapiens; conditions: Homo sapiens, MEG-01;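 note: growth inhibition of MEG-01 cells, read out by a cell viability assay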
Description: SANGER: Inhibition of human MEG-01 cell growth in a cell viability assay.

[21] = system: ML-2; format: functional, cell-based, Homo sapiens; conditions: Homo sapiens, ML-2;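 note: growth inhibition of ML-2 cells, measured with a cell viability readout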
Description: SANGER: Inhibition of human ML-2 cell growth in a cell viability assay.

[22] = system: LOX IMVI; format: functional, cell-based, Homo sapiens; conditions: Homo sapiens, LOX IMVI
Description: SANGER: Inhibition of human LOXIMVI cell growth in a cell viability assay.

[23] = system: NCI-H1650; format: functional, cell-based, Homo sapiens; conditions: Homo sapiens, NCI-H1650;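 note: growth inhibition of human NCI-H1650 cells measured by a cell viability assay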
Description: SANGER: Inhibition of human NCI-H1650 cell growth in a cell viability assay.

[24] = system: DSH1; format: functional, cell-based; conditions: Homo sapiens;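 note: growth inhibition of human DSH1 cells, measured with a cell viability readout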
Description: SANGER: Inhibition of human DSH1 cell growth in a cell viability assay.

[25] = system: QIMR-WIL; format: functional, cell-based, Homo sapiens; conditions: Homo sapiens, QIMR-WIL;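 note: growth inhibition of QIMR-WIL cells, read out with a cell viability assay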
Description: SANGER: Inhibition of human QIMR-WIL cell growth in a cell viability assay.

[26] = system: KLE; format: functional, cell-based; conditions: Homo sapiens;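 note: growth inhibition of human KLE cells, read out with a cell viability assay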
Description: SANGER: Inhibition of human KLE cell growth in a cell viability assay.

[27] = system: Ramos-2G6-4C10; format: functional, cell-based, Homo sapiens; conditions: Homo sapiens, Ramos-2G6-4C10;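 note: growth inhibition of the cell line, measured by a cell viability read-out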
Description: SANGER: Inhibition of human Ramos-2G6-4C10 cell growth in a cell viability assay.

[28] = system: CCRF-CEM; format: functional, cell-based, Homo sapiens; conditions: Homo sapiens, CCRF-CEM;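 note: inhibition of CCRF-CEM cell growth, measured by a cell viability assay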
Description: SANGER: Inhibition of human CCRF-CEM cell growth in a cell viability assay.

[29] = system: ES8; format: functional, cell-based, Homo sapiens; conditions: Homo sapiens, ES8;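 note: growth inhibition of human ES8 cells, read out with a cell viability assay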
Description: SANGER: Inhibition of human ES8 cell growth in a cell viability assay.

[30] = system: HH; format: functional, cell-based, Homo sapiens; conditions: Homo sapiens, HH
Description: SANGER: Inhibition of human HH cell growth in a cell viability assay.

[31] = system: LS-513; format: functional, cell-based, Homo sapiens; conditions: Homo sapiens, LS-513
Description: SANGER: Inhibition of human LS-513 cell growth in a cell viability assay.

[32] = system: NH-12; format: functional, cell-based, Homo sapiens; conditions: Homo sapiens, NH-12;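 note: growth inhibition of NH-12 cells, read out with a cell viability assay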
Description: SANGER: Inhibition of human NH-12 cell growth in a cell viability assay.

[33] = system: D-263MG; format: functional, cell-based, Homo sapiens; conditions: Homo sapiens, D-263MG
Description: SANGER: Inhibition of human D-263MG cell growth in a cell viability assay.

[34] = system: LU-134-A; format: functional, cell-based, Homo sapiens; conditions: Homo sapiens, LU-134-A
Description: SANGER: Inhibition of human LU-134-A cell growth in a cell viability assay.

[35] = system: SF-539; format: functional, cell-based, Homo sapiens; conditions: Homo sapiens, SF-539;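 note: Read-out is a cell viability assay, with IC50 reflecting inhibition of cell growth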
Description: SANGER: Inhibition of human SF539 cell growth in a cell viability assay.

[36] = system: JVM-3; format: functional, cell-based, Homo sapiens; conditions: Homo sapiens, JVM-3;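 note: growth inhibition of human JVM-3 cells, read out with a cell viability assay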
Description: SANGER: Inhibition of human JVM-3 cell growth in a cell viability assay.

[37] = system: BV-173; format: functional, cell-based, Homo sapiens; conditions: Homo sapiens, BV-173
Description: SANGER: Inhibition of human BV-173 cell growth in a cell viability assay.

[38] = system: MHH-NB-11; format: functional, cell-based, Homo sapiens; conditions: Homo sapiens, MHH-NB-11;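 note: growth inhibition of human MHH-NB-11 cells, read out by a cell viability assay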
Description: SANGER: Inhibition of human MHH-NB-11 cell growth in a cell viability assay.

[39] = system: HL-60; format: functional, cell-based, Homo sapiens; conditions: Homo sapiens, HL-60;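 note: growth inhibition of human HL-60 cells, read out with a cell viability assay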
Description: SANGER: Inhibition of human HL-60 cell growth in a cell viability assay.

[40] = system: KINGS-1; format: functional, cell-based, Homo sapiens; conditions: Homo sapiens, KINGS-1;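 note: cell viability assay measuring suppression of KINGS-1 cell growth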
Description: SANGER: Inhibition of human KINGS-1 cell growth in a cell viability assay.

[41] = system: Mo; format: functional, cell-based, Homo sapiens; conditions: Homo sapiens, Mo
Description: SANGER: Inhibition of human Mo-T cell growth in a cell viability assay.

[42] = system: NOMO-1; format: functional, cell-based, Homo sapiens; conditions: Homo sapiens, NOMO-1;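 note: growth inhibition of human NOMO-1 cells measured by a cell viability assay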
Description: SANGER: Inhibition of human NOMO-1 cell growth in a cell viability assay.

[43] = system: NCI-H226; format: functional, cell-based, Homo sapiens; conditions: Homo sapiens, NCI-H226;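 note: cell viability read-out used to gauge growth inhibition of the cells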
Description: SANGER: Inhibition of human NCI-H226 cell growth in a cell viability assay.

[44] = system: KU812 cell line; format: functional, cell-based, Homo sapiens; conditions: Homo sapiens, KU812;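 note: growth inhibition of KU812 cells, read out with a cell viability assay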
Description: SANGER: Inhibition of human KU812 cell growth in a cell viability assay.

[45] = system: PSN1; format: functional, cell-based, Homo sapiens; conditions: Homo sapiens, PSN1;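 note: suppression of growth of human PSN1 cells, read out by a cell viability assay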
Description: SANGER: Inhibition of human PSN1 cell growth in a cell viability assay.

[46] = system: TE-11; format: functional, cell-based; conditions: Homo sapiens;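 note: growth inhibition of human TE-11 cells, read out by a cell viability assay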
Description: SANGER: Inhibition of human TE-11 cell growth in a cell viability assay.

[47] = system: EW-13; format: functional, cell-based, Homo sapiens; conditions: Homo sapiens, EW-13; read-out: IC50;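 note: growth inhibition of EW-13 cells, read out with a cell viability assay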
Description: SANGER: Inhibition of human EW-13 cell growth in a cell viability assay.

[48] = system: TE-12; format: functional, cell-based, Homo sapiens; conditions: Homo sapiens, TE-12;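 note: growth inhibition of TE-12 cells, read out by a cell viability assay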
Description: SANGER: Inhibition of human TE-12 cell growth in a cell viability assay.

CO[C@@H]1[C@H](N(C)C(=O)c2ccccc2)C[C@H]2O[C@]1(C)n1c3ccccc3c3c4c(c5c6ccccc6n2c5c31)C(=O)NC4 [MIDOSTAURIN]
IC50 [1]: > 512 nM
IC50 [2]: > 512 nM
IC50 [3]: > 512 nM
IC50 [4]: > 512 nM
IC50 [5]: > 512 nM
IC50 [6]: 209 nM

CN(NC(=O)CC(=O)NN(C)C(=S)c1ccccc1)C(=S)c1ccccc1 [ELESCLOMOL]
IC50 [7]: 39.7 nM
IC50 [8]: 3.59 nM
IC50 [9]: 9.14 nM
IC50 [10]: 117 nM
IC50 [1]: > 200 nM
IC50 [11]: 4.86 nM
IC50 [12]: 47.7 nM
IC50 [13]: > 200 nM
IC50 [14]: 11.8 nM
IC50 [2]: > 200 nM
IC50 [15]: 12.7 nM
IC50 [16]: 6.71 nM
IC50 [17]: 40 nM
IC50 [18]: > 200 nM
IC50 [19]: > 200 nM
IC50 [20]: 105 nM
IC50 [21]: > 200 nM
IC50 [22]: 171 nM
IC50 [23]: 30.4 nM
IC50 [24]: 23.3 nM
IC50 [25]: 32.9 nM
IC50 [26]: > 200 nM
IC50 [27]: 12 nM
IC50 [3]: 57.4 nM
IC50 [28]: > 200 nM
IC50 [29]: 1.32 nM
IC50 [30]: > 200 nM
IC50 [31]: 82 nM
IC50 [32]: 134 nM
IC50 [33]: > 200 nM
IC50 [34]: > 200 nM
IC50 [35]: 24.4 nM
IC50 [36]: > 200 nM
IC50 [4]: 37.4 nM
IC50 [37]: 5.39 nM
IC50 [38]: 69.1 nM
IC50 [39]: 66.8 nM
IC50 [5]: < 0.781 nM
IC50 [40]: 177 nM
IC50 [6]: 19.4 nM
IC50 [41]: > 200 nM
IC50 [42]: > 200 nM
IC50 [43]: 131 nM
IC50 [44]: > 200 nM
IC50 [45]: 3.84 nM
IC50 [46]: 46.1 nM
IC50 [47]: 19.8 nM
IC50 [48]: > 200 nM

CC1=C(/C=C/C(C)=C/C=C/C(C)=C/C(=O)O)C(C)(C)CCC1 [TRETINOIN]
IC50 [7]: > 10000 nM
IC50 [8]: > 10000 nM
IC50 [9]: > 10000 nM
IC50 [10]: > 10000 nM
IC50 [1]: > 10000 nM
IC50 [11]: > 10000 nM
IC50 [12]: > 10000 nM
IC50 [13]: > 10000 nM
IC50 [14]: > 10000 nM
IC50 [2]: > 10000 nM
IC50 [15]: > 10000 nM
IC50 [16]: > 10000 nM
IC50 [17]: > 10000 nM
IC50 [18]: > 10000 nM
IC50 [19]: 1170 nM
IC50 [20]: 9610 nM
IC50 [21]: 4000 nM
IC50 [22]: > 10000 nM
IC50 [23]: > 10000 nM
IC50 [24]: > 10000 nM
IC50 [25]: 6620 nM
IC50 [26]: > 10000 nM
IC50 [27]: > 10000 nM
IC50 [3]: > 10000 nM
IC50 [28]: > 10000 nM
IC50 [29]: > 10000 nM
IC50 [30]: 196 nM
IC50 [31]: > 10000 nM
IC50 [32]: > 10000 nM
IC50 [33]: > 10000 nM
IC50 [34]: > 10000 nM
IC50 [35]: > 10000 nM
IC50 [36]: > 10000 nM
IC50 [4]: > 10000 nM
IC50 [37]: 1600 nM
IC50 [38]: > 10000 nM
IC50 [39]: 285 nM
IC50 [5]: > 10000 nM
IC50 [40]: > 10000 nM
IC50 [6]: > 10000 nM
IC50 [41]: > 10000 nM
IC50 [42]: > 10000 nM
IC50 [43]: > 10000 nM
IC50 [44]: 536 nM
IC50 [45]: > 10000 nM
IC50 [46]: > 10000 nM
IC50 [47]: 7610 nM
IC50 [48]: > 10000 nM

NC(=O)c1ccc(N(C(N)=O)c2c(F)cccc2F)nc1-c1ccc(F)cc1F [VX-702]
IC50 [7]: > 2000 nM
IC50 [8]: > 2000 nM
IC50 [9]: > 2000 nM
IC50 [10]: > 2000 nM
IC50 [1]: > 2000 nM
IC50 [11]: > 2000 nM
IC50 [12]: > 2000 nM
IC50 [13]: > 2000 nM
IC50 [14]: > 2000 nM
IC50 [2]: > 2000 nM
IC50 [15]: > 2000 nM
IC50 [16]: > 2000 nM
IC50 [17]: > 2000 nM
IC50 [18]: > 2000 nM
IC50 [19]: 83 nM
IC50 [20]: > 2000 nM
IC50 [21]: 227 nM
IC50 [22]: > 2000 nM
IC50 [23]: > 2000 nM
IC50 [24]: > 2000 nM
IC50 [25]: > 2000 nM
IC50 [26]: > 2000 nM
IC50 [27]: > 2000 nM
IC50 [3]: > 2000 nM
IC50 [28]: > 2000 nM
IC50 [29]: > 2000 nM
IC50 [30]: > 2000 nM
IC50 [31]: > 2000 nM
IC50 [32]: > 2000 nM
IC50 [33]: > 2000 nM
IC50 [34]: > 2000 nM
IC50 [35]: > 2000 nM
IC50 [36]: > 2000 nM
IC50 [4]: > 2000 nM
IC50 [37]: 114 nM
IC50 [38]: > 2000 nM
IC50 [39]: > 2000 nM
IC50 [5]: > 2000 nM
IC50 [40]: > 2000 nM
IC50 [6]: > 2000 nM
IC50 [41]: > 2000 nM
IC50 [42]: > 2000 nM
IC50 [43]: > 2000 nM
IC50 [44]: 125 nM
IC50 [45]: > 2000 nM
IC50 [46]: > 2000 nM
IC50 [47]: > 2000 nM
IC50 [48]: > 2000 nM

NC(=O)Nc1cc(-c2cccc(F)c2)sc1C(=O)N[C@H]1CCCNC1 [AZD-7762]
IC50 [7]: 845 nM
IC50 [8]: 160 nM
IC50 [9]: 258 nM
IC50 [10]: 1630 nM
IC50 [1]: 1000 nM
IC50 [11]: 271 nM
IC50 [12]: 620 nM
IC50 [13]: 1230 nM
IC50 [14]: 135 nM
IC50 [2]: > 2000 nM
IC50 [15]: 347 nM
IC50 [16]: 1380 nM
IC50 [17]: 442 nM
IC50 [18]: 31.4 nM
IC50 [19]: > 2000 nM
IC50 [20]: 346 nM
IC50 [21]: 125 nM
IC50 [22]: 429 nM
IC50 [23]: 1040 nM
IC50 [24]: 1690 nM
IC50 [25]: 163 nM
IC50 [26]: > 2000 nM
IC50 [27]: 148 nM
IC50 [3]: > 2000 nM
IC50 [28]: 292 nM
IC50 [29]: 99.2 nM
IC50 [30]: 708 nM
IC50 [31]: 749 nM
IC50 [32]: 357 nM
IC50 [33]: 909 nM
IC50 [34]: 657 nM
IC50 [35]: 137 nM
IC50 [36]: 230 nM
IC50 [4]: > 2000 nM
IC50 [37]: 346 nM
IC50 [38]: 390 nM
IC50 [39]: 774 nM
IC50 [5]: 150 nM
IC50 [40]: 1420 nM
IC50 [6]: > 2000 nM
IC50 [41]: > 2000 nM
IC50 [42]: 61.2 nM
IC50 [43]: > 2000 nM
IC50 [44]: 168 nM
IC50 [45]: 591 nM
IC50 [46]: 453 nM
IC50 [47]: > 2000 nM
IC50 [48]: > 2000 nM
